In paper PMC3382171 (PLoS ONE, 2012):

Molecular target: PLK1 (Homo sapiens, UniProt P53350)
Experiment: biochemical
Set-up: University of Dundee kinase panel, per cent inhibition of phosphorylation at ATP Km
Procedure: The METi and RAFi were screened against kinase panels (SelectScreen, Invitrogen; University of Dundee, Division of Signal Transduction Therapy, UK; Upstate Biotechnology/Millipore, Billerica, MA). In these selectivity assays the concentration of ATP was set to the Km value of ATP for each kinase tested to allow for a relative potency comparison between the various kinases. The compounds were tested at 1 µM final concentration. […] (A) Kinase selectivity screen (KSS) performed at Upstate Biotechnology. […] (B) KSS performed at University of Dundee (Division of Signal Transduction Therapy). […] (PDF) Click here for additional data file. Supplementary file pone.0039653.s002.pdf: Figure S2 Kinase Selectivity Screen of RAFi. (A) Kinase selectivity screen (KSS) performed at University of Dundee (Division of Signal Transduction Therapy). Values in % inhibition of phosphorylation given 1 µM of RAFi compared to control. (B) KSS performed at Invitrogen (Selectscreen Service) compared to control. Values in % inhibition of phosphorylation given 1 µM of RAFi. (C) Cell based dose response kinase inhibition of indicated kinases by RAFi. (PDF) Click here for additional data file.

Sequence of PLK1 (P53350 whole entry): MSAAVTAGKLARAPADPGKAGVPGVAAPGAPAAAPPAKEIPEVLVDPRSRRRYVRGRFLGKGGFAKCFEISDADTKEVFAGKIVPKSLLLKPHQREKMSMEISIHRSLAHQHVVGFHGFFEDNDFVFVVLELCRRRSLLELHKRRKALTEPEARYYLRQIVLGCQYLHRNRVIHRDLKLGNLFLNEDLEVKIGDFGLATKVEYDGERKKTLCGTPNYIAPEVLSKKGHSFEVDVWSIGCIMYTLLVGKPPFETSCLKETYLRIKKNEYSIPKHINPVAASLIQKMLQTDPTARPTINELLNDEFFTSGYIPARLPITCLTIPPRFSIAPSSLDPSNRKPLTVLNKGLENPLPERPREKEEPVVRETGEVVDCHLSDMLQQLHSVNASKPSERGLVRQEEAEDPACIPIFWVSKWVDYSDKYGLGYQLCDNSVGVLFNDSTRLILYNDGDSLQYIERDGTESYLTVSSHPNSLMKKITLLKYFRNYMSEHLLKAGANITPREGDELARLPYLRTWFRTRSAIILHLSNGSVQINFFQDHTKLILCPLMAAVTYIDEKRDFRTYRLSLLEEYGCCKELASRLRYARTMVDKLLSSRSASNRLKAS

Dundee KSS % inhibition at 1uM (inhibitor, Dundee KSS % inhibition at 1uM, 1 µM): 10.1%
inhibition at 1 µM (read-out: Dundee KSS % inhibition at 1uM): 13.6%
SMILES: OCCn1cc(-c2cnc3nnn(Cc4ccc5ncccc5c4)c3n2)cn1 [METi, PF-04217903]
